According to patent publication US9676780B2, “Piperazine-substituted [1,2,4]triazolo[1,5-C]quinazolin-5-amine compounds with A2A antagonist properties” (MERCK SHARP & DOHME CORP., priority 2012, dated 2017):

Target: T1, human A2a receptor (Homo sapiens, UniProt P29274)
T1 construct: purchased Perkin-Elmer RBHA2AM400UA; host or cells: HEK293
Assay: A2a receptor competition binding assay (Scintillation Proximity, tritiated radioligand)
Settings: membranes from HEK293 cells expressing the human A2a receptor; 0.5 nM tritiated ligand; SPA beads; one hour at room temperature; read-out: A2a EC50
Method: Binding affinities of compounds of the invention for the human A2a receptor were determined in a competition binding assay using Scintillation Proximity technology. […] The beads were then allowed to settle to the bottom of the wells for 1 hr, after which the membrane-associated radioactivity was determined by scintillation counting in a TopCount microplate reader. Ki values were determined using the Cheng-Prusoff equation.
• HEK293 cells expressing the human, rat, dog or monkey adenosine 2a receptor (Purchased from Perkin-Elmer # RBHA2AM400UA). • The Tritiated compound was prepared in-house by MRL Radiochemistry according to published methods. • Wheatgerm agglutinin-coated yttrium silicate SPA beads (GE Healthcare #RPNQ0023). […] This is a 2.5× solution. The final concentration in the assay is 0.5 nM. Calculate the concentration by counting two 5 ul aliquots. Membrane Preparation • Use 0.25 ug of membrane/well. Dilute membranes to 9.7 ug/ml in assay buffer. Treat with 20 ug/ml adenosine deaminase (ADA) for 15 minutes at room temperature to degrade endogenous adenosine. Membrane-Bead Mixture • Use 100 ug/well wheatgerm agglutinin-coated yttrium silicate SPA beads. • Mix ADA-treated membranes and SPA beads together for 30 min prior to assay. […] Incubate for one hour at room temperature with agitation. • Include total binding (assay buffer+1% DMSO) and non-specific binding (CGS15943, 1 uM) wells. Counting • Allow the beads to settle for one hour. • Count in TopCount. Calculations • A curve fitting program (i.e., Prism, Activity Base, Chemcart) is used to determine the EC50.
The Ki value is calculated using the Cheng-Prusoff equation. Ki=EC50/(1+(radioligand concentration/Kd))

T1 sequence (P29274 whole entry): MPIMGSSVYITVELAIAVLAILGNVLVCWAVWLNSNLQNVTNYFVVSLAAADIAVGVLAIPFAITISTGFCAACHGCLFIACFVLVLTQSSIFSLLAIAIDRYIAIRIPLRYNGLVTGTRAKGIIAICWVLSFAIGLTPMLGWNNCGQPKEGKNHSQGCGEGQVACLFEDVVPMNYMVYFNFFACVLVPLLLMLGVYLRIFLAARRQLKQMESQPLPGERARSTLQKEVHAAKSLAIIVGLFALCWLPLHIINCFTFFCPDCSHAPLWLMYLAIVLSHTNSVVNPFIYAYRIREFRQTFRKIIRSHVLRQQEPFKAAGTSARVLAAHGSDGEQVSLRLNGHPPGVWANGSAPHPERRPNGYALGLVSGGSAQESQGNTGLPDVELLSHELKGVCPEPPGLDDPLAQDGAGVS

Row | SMILES | EC50
1 | COc1cccc2c1nc(N)n1nc(CN3CCN(c4nncs4)CC3C)nc21 (centres unmarked) [Ex-75] | 47.4 nM
2 | COCc1nc(N2CCN(Cc3nc4c5cccc(OC)c5nc(N)n4n3)C(C)C2)no1 (centres unmarked) [Ex-79] | 21.1 nM
3 | COc1cccc2c1nc(N)n1nc(CN3CCN(c4noc(C(C)C)n4)CC3C)nc21 (centres unmarked) [Ex-80] | 19.4 nM
4 | COc1cccc2c1nc(N)n1nc(CN3CCN(c4ncc(C(=O)O)s4)CC3C)nc21 (centres unmarked) [Ex-81] | 68.2 nM
5 | COc1cccc2c1nc(N)n1nc(CN3CCN(c4noc(=O)[nH]4)CC3C)nc21 (centres unmarked) [Ex-82] | 628 nM
6 | COc1cccc2c1nc(N)n1nc(CN3CCN(c4noc(C(F)(F)F)n4)CC3C)nc21 (centres unmarked) [Ex-83] | 47.6 nM
7 | COc1cccc2c1nc(N)n1nc(CN3CCN(c4nnc(C)[nH]4)CC3C)nc21 (centres unmarked) [Ex-84] | 57.2 nM
8 | CCc1nc(N2CCN(Cc3nc4c5cccc(OC)c5nc(N)n4n3)C(C)C2)no1 (centres unmarked) [Ex-87] | 21.5 nM
9 | COc1cccc2c1nc(N)n1nc(CN3CCN(c4noc(C(C)(C)C)n4)CC3C)nc21 (centres unmarked) [Ex-88] | 22.2 nM
10 | COc1cccc2c1nc(N)n1nc(CN3CCN(c4ncns4)CC3C)nc21 (centres unmarked) [Ex-89] | 72.2 nM
11 | COc1cccc2c1nc(N)n1nc(CN3CCN(C(=O)c4nc(C5CC5)no4)CC3C)nc21 (centres unmarked) [Ex-90] | 53.5 nM
12 | COc1cccc2c1nc(N)n1nc(CN3CCN(c4nc(C(C)(C)C)no4)CC3C)nc21 (centres unmarked) [Ex-91] | 42.2 nM
13 | COc1cccc2c1nc(N)n1nc(CN3CCN(C(C)c4ccc(F)cc4F)CC3C)nc21 (centres unmarked) [Ex-92] | 5.2 nM
14 | COc1cccc2c1nc(N)n1nc(CN3CCN(C(C)c4ccc(F)cc4F)CC3C)nc21 (centres unmarked) [Ex-93] | 4.6 nM
15 | COCCOc1ccc(N2CCN(Cc3nc4c5cccc(OC)c5nc(N)n4n3)C(C)C2)cc1 (centres unmarked) [Ex-94] | 1.85 nM
16 | COc1cccc2c1nc(N)n1nc(CN3CCN(c4ccc(F)cc4F)CC3C)nc21 (centres unmarked) [Ex-95] | 3.1 nM
17 | COc1cc(F)ccc1N1CCN(Cc2nc3c4cccc(OC)c4nc(N)n3n2)C(C)C1 (centres unmarked) [Ex-96] | 3.41 nM
18 | COc1cccc2c1nc(N)n1nc(CN3CCN(c4ccnc(C(F)(F)F)c4)CC3C)nc21 (centres unmarked) [Ex-97] | 18.2 nM
19 | COc1cccc2c1nc(N)n1nc(CN3CCN(c4cc(C)ccn4)CC3C)nc21 (centres unmarked) [Ex-98] | 39.7 nM
20 | COc1cccc2c1nc(N)n1nc(CN3CCN(c4cccc(C)n4)CC3C)nc21 (centres unmarked) [Ex-99] | 46.3 nM
21 | COc1cccc2c1nc(N)n1nc(CN3CCN(c4ccncc4C(F)(F)F)CC3C)nc21 (centres unmarked) [Ex-100] | 29.4 nM
22 | COc1cccc2c1nc(N)n1nc(CN3CCN(c4cc(F)cc(Cl)c4)CC3C)nc21 (centres unmarked) [Ex-101] | 4.95 nM
23 | COc1cccc2c1nc(N)n1nc(CN3CCN(c4ccc(F)c(Cl)c4)CC3C)nc21 (centres unmarked) [Ex-102] | 2.14 nM

Row | SMILES | EC50
24 | COc1cc(Cl)cc(N2CCN(Cc3nc4c5cccc(OC)c5nc(N)n4n3)C(C)C2)c1 (centres unmarked) [Ex-103] | 5.56 nM
25 | COc1cccc2c1nc(N)n1nc(CN3CCN(c4ccncc4F)CC3C)nc21 (centres unmarked) [Ex-104] | 23.1 nM
26 | COc1cc(N2CCN(Cc3nc4c5cccc(OC)c5nc(N)n4n3)C(C)C2)ccn1 (centres unmarked) [Ex-105] | 16.8 nM
27 | COc1cccc2c1nc(N)n1nc(CN3CCN(c4cc(F)cc(F)c4)CC3C)nc21 (centres unmarked) [Ex-106] | 4.73 nM
28 | COc1cccc2c1nc(N)n1nc(CN3CCN(c4cc(F)ccn4)CC3C)nc21 (centres unmarked) [Ex-107] | 6.98 nM
29 | COc1cccc2c1nc(N)n1nc(CN3CCN(c4nsnc4OCCO)CC3C)nc21 (centres unmarked) [Ex-109] | 4.66 nM
30 | COc1cccc2c1nc(N)n1nc(CN3CCN(c4ccc5nc(C6CC6)oc5c4)CC3C)nc21 (centres unmarked) [Ex-110] | 1.1 nM
31 | COc1cccc2c1nc(N)n1nc(CN3CCN(c4cccc5c4cnn5C)CC3C)nc21 (centres unmarked) [Ex-112] | 1.6 nM
32 | COc1cccc2c1nc(N)n1nc(CN3CCN(c4cnccn4)CC3C)nc21 (centres unmarked) [Ex-113] | 27.3 nM
33 | COc1cccc2c1nc(N)n1nc(CN3CCN(c4cc(C#N)ccn4)CC3C)nc21 (centres unmarked) [Ex-114] | 12.3 nM
34 | COc1cc(N2CCN(Cc3nc4c5cccc(OC)c5nc(N)n4n3)C(C)C2)ccc1F (centres unmarked) [Ex-115] | 1.39 nM
35 | COc1cncc(N2CCN(Cc3nc4c5cccc(OC)c5nc(N)n4n3)C(C)C2)c1OC (centres unmarked) [Ex-116] | 3.03 nM
36 | COc1cccc2c1nc(N)n1nc(CN3CCN(c4ccc(C(F)(F)F)c(C(F)(F)F)c4)CC3C)nc21 (centres unmarked) [Ex-117] | 12.7 nM
37 | COc1ccc(N2CCN(Cc3nc4c5cccc(OC)c5nc(N)n4n3)C(C)C2)cc1C(F)(F)F (centres unmarked) [Ex-118] | 1.25 nM
38 | COc1cccc2c1nc(N)n1nc(CN3CCN(c4ccc(N5CCOCC5)cc4)CC3C)nc21 (centres unmarked) [Ex-119] | 1.97 nM
39 | COc1cccc2c1nc(N)n1nc(CN3CCN(c4cc(C(F)(F)F)cc(C(F)(F)F)c4)CC3C)nc21 (centres unmarked) [Ex-120] | 20.7 nM
40 | COc1ccc(Cl)c(N2CCN(Cc3nc4c5cccc(OC)c5nc(N)n4n3)C(C)C2)c1 (centres unmarked) [Ex-121] | 13.2 nM
41 | COc1cccc2c1nc(N)n1nc(CN3CCN(c4ncc(F)cc4F)CC3C)nc21 (centres unmarked) [Ex-122] | 4.86 nM
42 | COc1cccc2c1nc(N)n1nc(CN3CCN(c4cc(C(F)F)ccn4)CC3C)nc21 (centres unmarked) [Ex-123] | 4.25 nM
43 | COc1cccc2c1nc(N)n1nc(CN3CCN(c4cc(Cl)cc(Cl)c4)CC3C)nc21 (centres unmarked) [Ex-124] | 2.82 nM
44 | COc1cc(N2CCN(Cc3nc4c5cccc(OC)c5nc(N)n4n3)C(C)C2)ccc1Cl (centres unmarked) [Ex-125] | 1.03 nM
45 | COc1cccc2c1nc(N)n1nc(CN3CCN(c4cccc(N(C)C)c4)CC3C)nc21 (centres unmarked) [Ex-126] | 2.39 nM
46 | COc1cccc2c1nc(N)n1nc(CN3CCN(c4ccc(Cl)c(Cl)c4)CC3C)nc21 (centres unmarked) [Ex-127] | 3.08 nM

Row | SMILES | EC50
47 | COc1cccc2c1nc(N)n1nc(CN3CCN(c4ccc5c(c4)c(C)nn5C)CC3C)nc21 (centres unmarked) [Ex-128] | 0.964 nM
48 | COc1cccc2c1nc(N)n1nc(CN3CCN(c4c(C)nn(C)c4C)CC3C)nc21 (centres unmarked) [Ex-129] | 11.6 nM
49 | COc1cccc2c1nc(N)n1nc(CN3CCN(c4ccc5c(cnn5C)c4)CC3C)nc21 (centres unmarked) [Ex-130] | 0.898 nM
50 | COc1cccc2c1nc(N)n1nc(CN3CCN(c4ccc5nn(C)cc5c4)CC3C)nc21 (centres unmarked) [Ex-131] | 0.698 nM
51 | COc1cccc2c1nc(N)n1nc(CN3CCN(c4cccc5nn(C)cc45)CC3C)nc21 (centres unmarked) [Ex-132] | 2.04 nM
52 | COc1cc(OC)cc(N2CCN(Cc3nc4c5cccc(OC)c5nc(N)n4n3)C(C)C2)c1 (centres unmarked) [Ex-133] | 1.68 nM
53 | COc1cccc2c1nc(N)n1nc(CN3CCN(c4ccc(Cl)cn4)CC3C)nc21 (centres unmarked) [Ex-134] | 4.57 nM
54 | COc1cccc2c1nc(N)n1nc(CN3CCN(c4nccnc4C)CC3C)nc21 (centres unmarked) [Ex-135] | 10.7 nM
55 | COc1cccc2c1nc(N)n1nc(CN3CCN(c4ccc(F)c(C)n4)CC3C)nc21 (centres unmarked) [Ex-136] | 11.4 nM
56 | COc1cccc2c1nc(N)n1nc(CN3CCN(c4ccc(C#N)cn4)CC3C)nc21 (centres unmarked) [Ex-137] | 20.6 nM
57 | COc1cccc2c1nc(N)n1nc(CN3CCN(c4ccc(C)cn4)CC3C)nc21 (centres unmarked) [Ex-138] | 14.3 nM
58 | COc1cccc2c1nc(N)n1nc(CN3CCN(c4cc(C(F)(F)F)c(C(F)(F)F)cn4)CC3C)nc21 (centres unmarked) [Ex-139] | 81.8 nM
59 | COc1cccc2c1nc(N)n1nc(CN3CCN(c4cnn(CC(C)(C)C)c4)CC3C)nc21 (centres unmarked) [Ex-140] | 4.93 nM
60 | COCc1c2cc(N3CCN(Cc4nc5c6cccc(OC)c6nc(N)n5n4)C(C)C3)ccc2nn1C (centres unmarked) [Ex-141] | 2.34 nM
61 | COc1ccnc(N2CCN(Cc3nc4c5cccc(OC)c5nc(N)n4n3)C(C)C2)c1 (centres unmarked) [Ex-142] | 16.5 nM
62 | COc1cccc2c1nc(N)n1nc(CN3CCN(c4cccc(S(C)(=O)=O)c4)CC3C)nc21 (centres unmarked) [Ex-143] | 13.9 nM
63 | COc1cccc2c1nc(N)n1nc(CN3CCN(c4cnccc4C)CC3C)nc21 (centres unmarked) [Ex-144] | 20.1 nM
64 | COc1cncc(N2CCN(Cc3nc4c5cccc(OC)c5nc(N)n4n3)C(C)C2)c1 (centres unmarked) [Ex-146] | 6.35 nM
65 | COc1cccc2c1nc(N)n1nc(C(=O)N3CCN(CC(F)(F)F)CC3C)nc21 (centres unmarked) [Ex-147] | 6.6 nM
66 | COc1cccc2c1nc(N)n1nc(CN3CCN(c4ncccc4C(F)(F)F)CC3C)nc21 (centres unmarked) [Ex-148] | 18 nM
67 | COc1cccc2c1nc(N)n1nc(CN3CCN(c4cc(F)cc(C(=O)O)c4)CC3C)nc21 (centres unmarked) [Ex-149] | 13.4 nM
68 | COc1cccc2c1nc(N)n1nc(CN3C(C)CN(c4ccc(F)cn4)CC3C)nc21 (centres unmarked) [Ex-150] | 15 nM
